Measured values: BindingDB's records for patent US20240092770 (Recursion Pharmaceuticals, 2024)

Target: T1, RNA-binding protein 39 [150-331]/DDB1- and CUL4-associated factor 15 (Homo sapiens, UniProt Q14498+Q66K64)
T1 construct: 150-331
Experiment: TR-FRET Assay
Experimental: A TR-FRET assay was used to assess the effect of compounds disclosed herein on the interaction between RBM39 and the DCAF15 complex. Test compounds were dissolved to form a 10 mM DMSO stock solution. A 45 μL aliquot of the stock solution was transferred to a 384 pp-plate, and a threefold, 8-point dilution was performed via transferring 15 μL compound solution into 30 μL of DMSO. The plates were then spun at room temperature at 1,000 RPM for 1 minute. A 30 nL aliquot of the diluted compound was transferred to a 384 well plate, which was incubated at room temperature for 15 minutes. Next, Solutions 1, 2, and 3 were prepared as described in the below tables. A 5 μL aliquot of Solution 2 was added to each well, followed by 5 μL of Solution 3 to start the reaction. The final volume of each well was 10 μL. The plates were incubated at room temperature for 60 minutes, and then read.

T1 sequence (Q66K64 whole entry): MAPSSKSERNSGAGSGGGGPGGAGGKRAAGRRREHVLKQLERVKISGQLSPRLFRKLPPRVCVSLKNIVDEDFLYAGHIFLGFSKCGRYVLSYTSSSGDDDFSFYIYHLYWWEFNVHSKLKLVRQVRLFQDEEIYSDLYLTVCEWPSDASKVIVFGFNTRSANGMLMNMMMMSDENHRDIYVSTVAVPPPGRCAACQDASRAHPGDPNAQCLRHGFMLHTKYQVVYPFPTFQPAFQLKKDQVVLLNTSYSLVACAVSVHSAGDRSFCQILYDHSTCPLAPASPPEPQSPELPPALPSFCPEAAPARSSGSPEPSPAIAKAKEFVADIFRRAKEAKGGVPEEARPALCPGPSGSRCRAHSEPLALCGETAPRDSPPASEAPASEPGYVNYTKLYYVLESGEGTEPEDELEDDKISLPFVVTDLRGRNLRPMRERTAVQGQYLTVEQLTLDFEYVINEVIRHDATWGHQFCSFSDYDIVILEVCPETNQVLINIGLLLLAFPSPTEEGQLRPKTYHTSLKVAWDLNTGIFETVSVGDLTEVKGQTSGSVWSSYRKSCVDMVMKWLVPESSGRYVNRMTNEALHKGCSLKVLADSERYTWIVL
T1 sequence (Q14498 150-331): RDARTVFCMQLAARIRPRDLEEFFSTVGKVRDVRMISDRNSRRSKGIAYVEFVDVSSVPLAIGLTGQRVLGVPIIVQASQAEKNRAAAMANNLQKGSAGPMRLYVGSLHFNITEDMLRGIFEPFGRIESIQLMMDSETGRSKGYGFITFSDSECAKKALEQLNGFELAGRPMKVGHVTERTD

EC50: 1090 nM
SMILES: Cc1ccc(NS(=O)(=O)c2ncc(C(F)(F)F)s2)c2[nH]cc(C#N)c12 [US20240092770, Compound 25]
